Source: US7393856B2, “Anti-viral uses of borinic acid complexes” (Anacor Pharmaceuticals, Inc., priority 2004, dated 2008)

Assays:
[1] = In vitro anti-viral activity for HSV-2; assay type: cell-based; conditions: HSV-2 assay; toxic concentration that kills 50% of cells; read-out: Anti-HSV-2 Activity TC50
HSV-2 = assay: In vitro anti-viral activity for HSV-2; assay type: cell-based; conditions: Human alphaherpesvirus 2
[2] = In vitro anti-viral activity for HSV-1; assay type: cell-based; conditions: HSV-1 assay; toxic concentration that kills 50% of cells; read-out: Anti-HSV-1 Activity TC50
HSV-1 = assay: In vitro anti-viral activity for HSV-1; assay type: cell-based; conditions: Human alphaherpesvirus 1
HIV-2 = assay: In vitro anti-viral activity for HIV-2; assay type: cell-based; conditions: Human immunodeficiency virus 2
[3] = In vitro anti-viral activity for HIV-2; assay type: cell-based; conditions: HIV-2 assay; toxic concentration that kills 50% of cells; read-out: Anti-HIV-2 Activity TC50
HIV-1 = assay: In vitro anti-viral activity for HIV-1; assay type: cell-based; conditions: Human immunodeficiency virus 1
[4] = In vitro anti-viral activity for HIV-1; assay type: cell-based; conditions: HIV-1 assay; toxic concentration that kills 50% of cells; read-out: Anti-HIV-1 Activity TC50
[5] = HepG2 2.15 anti-viral evaluation assay (in vitro anti-HBV activity); assay type: cell-based, HBV aywl strain; conditions: human, HepG2 2.2.15 cells (produce HBV aywl strain); HepG2 2.2.15 cells; positive control; read-out: Anti-HBV TC50
Description: (§1) HepG2 2.2.15 cells, which produce HBV aywl strain, were plated in 96-well collagen coated microtiter plates at a density of 2.5×10^4/well with DMEM medium supplemented with 2% fetal bovine serum. One day following plating of cells, the wells were washed and the medium was replaced with complete medium containing the test compound diluted in the medium in a half-log series.
(§2) The medium was replaced once with the fresh medium containing the freshly diluted compound three days post the initial addition of the lamivudine, a positive control compound. Cell viability was determined using CellTiter 96® Reagent (Promega, Madison, Wis.) according to the manufacturer's protocol, using a Vmax plate reader (Molecular Devices, Sunnyvale, Calif.). The mixture is metabolized by the mitochondrial enzymes of metabolically active cells to a soluble formazan product, allowing the rapid quantitative analysis of cell numbers. The media was removed and replaced with 100 μL of fresh media and 10 μL of Cell Titer 96. […] Percent cell viability of compound treated wells compared to no compound controls was calculated using an in-house computer program which graphs the percent reduction in viral cytopathic effects and the cell numbers at each drug concentration relative to control values.

HBV = assay: as above; assay type: cell-based, HBV aywl strain
Description: as §1, §2

| Compound | CC50 [1] [µM] | IC50 (HSV-2) [µM] | CC50 [2] [µM] | IC50 (HSV-1) [µM] | IC50 (HIV-2) [µM] | CC50 [3] [µM] | IC50 (HIV-1) [µM] | CC50 [4] [µM] | CC50 [5] [µM] | Anti-viral Selectivity Index (HBV; HBV, TC50/IC50) | IC50 (HBV; Hepatitis B virus, HepG2 2.2.15 cells, positive control) [µM] |
| --- | --- | --- | --- | --- | --- | --- | --- | --- | --- | --- | --- |
| Nc1nc2c(ncn2COCCO)c(=O)[nH]1 [Acyclovir, reference compound] | > 100 | 7.61 | > 100 | 18 |  |  |  |  |  |  |  |
| Fc1ccc(B(Oc2cccc3cccnc23)c2ccc(Cl)cc2)cc1 [Compound 15, (4-Fluorophenyl)(4-chlorophenyl)borinic acid quinolin-8-yl ester] | 32.9 | > 50 | > 32 | 9.68 | 0.04 | 0.53 | 0.17 | 2.5 |  |  |  |
| Nc1ccn([C@@H]2CS[C@H](CO)O2)c(=O)n1 [Lamivudine] |  |  |  |  |  |  |  |  | > 1 | >1075 | 0.0093 |
